Tested on: MSCs from mouse bone marrow
Test: MSC viability (MTS assay), dose-response
Type: cell-based
Details: 24 h
Description: It is well established that bone marrow MSC behavior is influenced by a variety of signaling systems. In context, cholinergic intramural stimuli and, in particular, muscarinic signals orchestrate MSCs viability and commitment.[11],[12] Considering also the pluripotent MSC nature and their contribution to bone, blood, and systemic homeostasis,[53] viability studies on MSCs were performed to determine the functional profile of 3b, the most interesting compound in this series. […] Successively, the efficacy of 3b in contrasting cell viability induced by the well-known mAChR agonist carbachol was evaluated. […] Further research on the intracellular mechanistic outcomes of 3b on MSCs remains mandatory.
The in vitro studies were performed by using bone marrow MSCs as a model. […] After 2 weeks of initiating culture, cells were washed with PBS, detached by trypsinization, counted, and plated at the density of 5,000 cells/well in 96 culture plates (Costar Corp., Milano, Italy) in DMEM containing 10% HIFCS, penicillin, and streptomycin.
MSCs were treated with compound 3b (from 10^–4 to 10^–10 M) for 24 h. […] At the end of each procedure, the MSCs viability was measured by MTS assay. […] The quantity of the formazan product was directly proportional to the number of living cells in culture. The colored formazan was measured by reading the absorbance at 490 nm using a […] plate reader.

C[N+](C)(C)C[C@@H]1COC[C@](c2ccccc2)(C2CCCCC2)O1.[I-] (relative stereo) [3b, 1-((2R*,6R*)-6-Cyclohexyl-6-phenyl-1,4-dioxan-2-yl)-N,N,N-trimethylmethanaminium Iodide]
effect on MSCs viability (high concentration (10^–4 M)): down-regulate MSCs viability | effect on MSCs viability (low concentration (10^–10 M)): increased cell viability

Source: paper PMC8007111, “Novel Potent Muscarinic Receptor Antagonists: Investigation on the Nature of Lipophilic Substituents in the 5- and/or 6-Positions of the 1,4-Dioxane Nucleus” (Journal of Medicinal Chemistry, 2020)
